# Literature values, collected in US10953063B2, “Method of treating select cancers using timed administration of plant extract from species Physalis pubescens and Hedyotis diffusa willd” (priority 2018, dated 2021).
# Tested on: human leukemia cells
# Settings: research findings
compound,measurement,value
Cc1cc2c(cc1O)C(=O)c1ccccc1C2=O [2-Hydroxy-3-Methylanthraguinone],apoptosis in human leukemia cells,induces apoptosis
